Like-named read-outs stand apart in the source and are kept apart here.
What was measured:
Assay in all cases: Kinase panel profiling at 1 µmol/L (MSA or IMAP), percentage inhibition
Format in all cases: biochemical
[1] = target: T1, panel of 255 wild-type kinases (Homo sapiens, UniProt P36888); settings: read-out: %-inhibition at 1 µmol/L, FLT3
T1 sequence (P36888 27-993): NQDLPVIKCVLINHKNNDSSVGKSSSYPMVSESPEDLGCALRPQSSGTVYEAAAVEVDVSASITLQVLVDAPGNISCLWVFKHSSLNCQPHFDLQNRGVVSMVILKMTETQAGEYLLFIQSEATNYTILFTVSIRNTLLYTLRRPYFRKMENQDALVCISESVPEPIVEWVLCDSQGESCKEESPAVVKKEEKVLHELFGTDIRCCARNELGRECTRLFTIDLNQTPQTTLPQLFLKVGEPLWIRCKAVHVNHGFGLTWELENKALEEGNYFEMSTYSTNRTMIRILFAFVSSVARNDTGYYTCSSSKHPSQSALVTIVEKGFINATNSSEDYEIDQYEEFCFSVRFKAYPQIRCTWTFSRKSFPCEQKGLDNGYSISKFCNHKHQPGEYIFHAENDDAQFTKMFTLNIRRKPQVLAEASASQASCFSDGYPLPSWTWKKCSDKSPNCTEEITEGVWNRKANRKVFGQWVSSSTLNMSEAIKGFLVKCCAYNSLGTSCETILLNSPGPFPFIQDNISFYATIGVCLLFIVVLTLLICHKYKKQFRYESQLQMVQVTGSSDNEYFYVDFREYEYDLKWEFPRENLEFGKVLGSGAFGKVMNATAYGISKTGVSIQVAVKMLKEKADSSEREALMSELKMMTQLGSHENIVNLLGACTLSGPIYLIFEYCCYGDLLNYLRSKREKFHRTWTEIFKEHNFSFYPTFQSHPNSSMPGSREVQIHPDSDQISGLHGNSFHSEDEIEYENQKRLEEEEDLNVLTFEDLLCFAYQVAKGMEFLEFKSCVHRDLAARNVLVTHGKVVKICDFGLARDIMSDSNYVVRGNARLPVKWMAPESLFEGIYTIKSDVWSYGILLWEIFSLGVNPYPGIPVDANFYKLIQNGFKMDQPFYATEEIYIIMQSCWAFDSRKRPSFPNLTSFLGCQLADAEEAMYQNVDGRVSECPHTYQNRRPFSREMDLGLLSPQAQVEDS

[2] = target: T2, panel of 255 wild-type kinases (Homo sapiens, UniProt P53778); settings: read-out: %-inhibition, p38γ
T2 sequence (P53778 1-367): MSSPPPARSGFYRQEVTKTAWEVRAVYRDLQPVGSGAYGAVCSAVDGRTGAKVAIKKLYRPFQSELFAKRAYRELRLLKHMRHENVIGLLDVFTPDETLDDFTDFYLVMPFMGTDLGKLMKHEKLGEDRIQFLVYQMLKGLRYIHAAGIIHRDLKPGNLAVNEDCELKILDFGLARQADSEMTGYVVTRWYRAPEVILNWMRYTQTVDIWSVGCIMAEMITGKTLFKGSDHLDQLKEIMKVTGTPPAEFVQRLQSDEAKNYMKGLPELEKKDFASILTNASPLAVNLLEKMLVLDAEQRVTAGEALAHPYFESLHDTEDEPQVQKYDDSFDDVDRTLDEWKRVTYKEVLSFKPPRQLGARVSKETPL

[3] = target: panel of 255 wild-type kinases (Homo sapiens, UniProt Q9BUB5); settings: read-out: %-inhibition, MNK1
[4] = target: panel of 255 wild-type kinases (Homo sapiens, UniProt P11362); settings: read-out: %-inhibition at 1 µmol/L, FGFR1
[5] = target: panel of 255 wild-type kinases (Homo sapiens, UniProt O96017); settings: read-out: %-inhibition CHK2
[6] = target: panel of 255 wild-type kinases (Homo sapiens, UniProt Q16512); settings: read-out: %-inhibition at 1 µmol/L, PKN1
[7] = target: panel of 255 wild-type kinases (Homo sapiens, UniProt O75676); settings: read-out: %-inhibition, MSK2
[8] = target: panel of 255 wild-type kinases (Homo sapiens, UniProt P00519); settings: read-out: %-inhibition ABL
[9] = target: panel of 255 wild-type kinases (Homo sapiens, UniProt Q13464); settings: read-out: %-inhibition at 1 µmol/L, ROCK1
[10] = target: panel of 255 wild-type kinases (Homo sapiens, UniProt P78362); settings: read-out: %-inhibition at 1 µmol/L, SRPK2
[11] = target: panel of 255 wild-type kinases (Homo sapiens, UniProt P07333); settings: read-out: %-inhibition at 1 µmol/L, FMS
[12] = target: T3, panel of 255 wild-type kinases (Homo sapiens, UniProt Q13188); settings: read-out: %-inhibition, MST2
T3 sequence (Q13188 1-491): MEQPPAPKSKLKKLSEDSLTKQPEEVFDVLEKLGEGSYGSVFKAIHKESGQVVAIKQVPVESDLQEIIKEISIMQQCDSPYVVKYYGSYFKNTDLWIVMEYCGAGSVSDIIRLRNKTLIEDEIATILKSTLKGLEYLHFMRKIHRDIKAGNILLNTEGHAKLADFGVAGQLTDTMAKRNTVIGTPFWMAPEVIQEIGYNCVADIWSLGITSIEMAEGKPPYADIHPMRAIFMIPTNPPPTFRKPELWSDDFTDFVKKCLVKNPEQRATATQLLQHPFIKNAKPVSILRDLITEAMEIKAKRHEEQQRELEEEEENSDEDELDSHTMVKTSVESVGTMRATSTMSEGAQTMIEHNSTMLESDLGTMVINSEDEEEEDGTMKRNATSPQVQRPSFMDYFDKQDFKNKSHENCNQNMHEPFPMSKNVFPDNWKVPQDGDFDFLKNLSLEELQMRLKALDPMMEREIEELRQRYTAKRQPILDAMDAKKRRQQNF

[13] = kinase FLT3, 1 µmol/L single concentration
[14] = p38γ, 1 µmol/L single concentration
[15] = MNK1, 1 µmol/L single concentration
[16] = kinase FGFR1, 1 µmol/L single concentration
[17] = CHK2 kinase assay, 1 µmol/L single concentration
[18] = kinase PKN1, 1 µmol/L single concentration
[19] = MSK2, 1 µmol/L single concentration
[20] = ABL kinase assay, 1 µmol/L single concentration
[21] = kinase ROCK1, 1 µmol/L single concentration
[22] = kinase SRPK2, 1 µmol/L single concentration
[23] = kinase FMS, 1 µmol/L single concentration
[24] = MST2, 1 µmol/L single concentration

Row | SMILES | inhibition at 1 µM [1, 13] [%] | inhibition at 1 µM [2, 14] [%] | inhibition at 1 µM [3, 15] [%] | inhibition at 1 µM [4, 16] [%] | inhibition at 1 µM [5, 17] [%] | inhibition at 1 µM [6, 18] [%] | inhibition at 1 µM [7, 19] [%] | inhibition at 1 µM [8, 20] [%] | inhibition at 1 µM [9, 21] [%] | inhibition at 1 µM [10, 22] [%] | inhibition at 1 µM [11, 23] [%] | inhibition at 1 µM [12, 24] [%] | also measured
1 | Cc1nc(NC(=O)N2CCC[C@H]2C(N)=O)sc1-c1ccnc(C(C)(C)C(F)(F)F)c1 [alpelisib] | 6 | -6 | 2.72 | 4.29 | -1.14 | 8 | 0.0558 | 16 | -0.415 | -1.61 | 14 | 1.52 | 
2 | Cn1cc(-c2cc3c(N4CCN(c5ncc([C@@](C)(N)c6ccc(F)cc6)cn5)CC4)ncnn3c2)cn1 [avapritinib] | 100 | -0.867 | 72 | 41 | 5.47 | 19 | 5 | 57 | 2 | -0.951 |  | 0.434 | 
3 | Cn1cnc2c(F)c(Nc3ccc(Br)cc3F)c(C(=O)NOCCO)cc21 [binimetinib] | 12 | 2 | 1.8 | 2 | 4.21 | 6 | -3.65 | -1.53 | -7 | -1.4 | 7 | -1.64 | 
4 | CNC(=O)c1ccc(-c2cnc3ncc(Cc4ccc5ncccc5c4)n3n2)cc1F [capmatinib] |  |  |  |  |  |  |  |  |  |  |  |  | inhibition at 1 µM [1]: 50%; inhibition at 1 µM [2]: -1.26%; inhibition at 1 µM [3]: -1%; inhibition at 1 µM [4]: -0.662%; inhibition at 1 µM [5]: -1.52%; inhibition at 1 µM [6]: 16%; inhibition at 1 µM [7]: 1.25%; inhibition at 1 µM [8]: -1.84%; inhibition at 1 µM [9]: 1.06%; inhibition at 1 µM [10]: -9%; inhibition at 1 µM [11]: 13%; inhibition at 1 µM [12]: -3.3%
5 | COc1cc2ncnc(Nc3ccc(F)c(Cl)c3)c2cc1NC(=O)/C=C/CN1CCCCC1 [dacomitinib] | 56 | 0.231 | 91 | 8 | 23 | 16 | 6 |  | -2.68 | 0.863 | 8.55 | 2 | 
6 | C[C@H](Nc1ncnc2nc[nH]c12)c1cc2cccc(Cl)c2c(=O)n1-c1ccccc1 [duvelisib] | 10 | -4 | 0.446 | -0.103 | -3.49 | 11 | -1.39 | -2 | -4.36 | -0.863 | 2.22 | 4 | 
7 | COC(=O)N[C@@H](C)CNc1nccc(-c2cn(C(C)C)nc2-c2cc(Cl)cc(NS(C)(=O)=O)c2F)n1 [encorafenib] | 9 | 3.2 | 4.33 | 4.27 | 7 | 6 | -4 | -5.41 | 0.403 | 2 | 8 | 3 | 
8 | CN1CCN(c2ccc(C(=O)Nc3n[nH]c4ccc(Cc5cc(F)cc(F)c5)cc34)c(NC3CCOCC3)c2)CC1 [entrectinib] |  | -3 | -1 | 90 | 31 | 64 | 2.7 | 77 | 4.51 | 21 | 86 | 35 | 
9 | CCc1nc(C(N)=O)c(Nc2ccc(N3CCC(N4CCN(C)CC4)CC3)c(OC)c2)nc1NC1CCOCC1 [gilteritinib] | 99 | -0.507 | 70 | 55 | 75 | 65 | 6 | 40 | 60 | 12 | 104 | 14 | 
10 | CCN1CCN(c2ccc(Nc3cc(N(C)C(=O)Nc4c(Cl)c(OC)cc(OC)c4Cl)ncn3)cc2)CC1 [infigratinib] |  | -3 | -1.75 | 100 | -0.482 | 13 | -0.703 | 10 | 0.396 | -5.51 | 96 | -2.14 | 
11 | CCN1C(=O)N(c2c(F)c(OC)cc(OC)c2F)Cc2cnc3[nH]c(CN4CCOCC4)cc3c21 [pemigatinib] | 8 | 1.73 | -4.63 |  | 3 | 10 | -3.61 | 10 | -2.6 | -6 | 93 | 7 | 

— paper PMC9516332 (Frontiers in Oncology, 2022)
